Laboratory results as given in US20240425501A1, “NOVEL BICYCLIC HETEROARYL DERIVATIVES AS SOS1:KRAS PROTEINPROTEIN INTERACTION INHIBITORS” (SATYARX PHARMA INNOVATIONS PVT LTD, priority 2021, published 2024).

Target: T1, hSOS1 enzyme / KRAS (G12C), GST-Tag, GDP-bound protein (Homo sapiens, UniProt Q07889)
T1 sequence (Q07889 564-1049 limits assumed): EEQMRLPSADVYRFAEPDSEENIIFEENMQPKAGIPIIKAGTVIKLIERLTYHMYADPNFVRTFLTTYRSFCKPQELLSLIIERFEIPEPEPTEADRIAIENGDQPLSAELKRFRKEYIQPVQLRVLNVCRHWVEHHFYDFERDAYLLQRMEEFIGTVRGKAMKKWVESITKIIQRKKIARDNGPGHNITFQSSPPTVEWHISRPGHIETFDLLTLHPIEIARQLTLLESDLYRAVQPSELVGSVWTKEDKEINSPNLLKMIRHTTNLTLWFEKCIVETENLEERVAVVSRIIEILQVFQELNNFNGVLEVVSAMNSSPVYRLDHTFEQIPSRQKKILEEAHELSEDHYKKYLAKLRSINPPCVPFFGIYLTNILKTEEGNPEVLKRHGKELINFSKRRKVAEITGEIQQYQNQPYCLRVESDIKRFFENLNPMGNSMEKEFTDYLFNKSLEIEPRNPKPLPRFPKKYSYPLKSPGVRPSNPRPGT
Assay: SOS1-mediated KRAS guanine nucleotide exchange (GEF) assay, HTRF ("On Assay")
Format: biochemical
Conditions: 1 μM compound
Protocol: Biochemical Assay: Measurement of SOS1-Mediated KRAS Guanine Nucleotide Exchange (GEF) Assay
This assay quantifies the HTRF-based SOS1 mediated guanine nucleotide exchange assay detecting GTP binding to KRAS (G12C), GST-Tag, GDP-bound protein. This is also referred as “On Assay”.The assay buffer composition is as follows: 10 mM HEPES pH-7, 150 mM NaCl, 5 mM MgCl2, 1 mM DTT, 0.05% BSA, 0.0025% IGEPAL CA-630 and MilliQ water. 0.5 μl of compounds diluted in assay buffer were dispensed into the respective wells of 384 black well test plate. 4.75 μl of KRAS working solution containing 100 nM KRAS (G12C), GST-Tag, GDP-bound protein GDP-loaded (Reaction biology) and 2 nM Anti GST-Tb cryptate (FRET donor, Cisbio) was added in assay buffer. The components were incubated for 10 min at 25° C.
4.75 μl of hSOS1 working solution containing 20 nM hSOS1 enzyme and 200 nM EDA-GTP-DY-647P (FRET acceptor, synthesized by Jena Bioscience (Germany), supplied as a 1 mM solution) was further added in assay buffer. 4.75 μl of inhibitor control having only 200 nM EDA-GTP-DY-647P1 component without hSOS1 working solution was added in the negative control well. The plate was short spun for few seconds and incubated for 10 min. HTRF was measured using Perkin Elmer-Nivo 5F multimode plate reader.
HTRF settings: EXCITATION FILTER—320/75 nm, EMISSION FILTER (1) —615/8 nm, EMISSION FILTER (2)—665/8 nm

SMILES	inhibition at 1 µM [%]
C[C@@H](Nc1nc(Cl)nc2cnc(N3CCN(C4CC4)CC3)cc12)c1cc(N)cc(C(F)(F)F)c1 [Example 26, (R)—N-(1-(3-amino-5-(trifluoromethyl)phenyl)ethyl)-2-chloro-6-(4-cyclopropylpiperazin-1-yl)pyrido[3,4-d]pyrimidin-4-amine]	≥ 50
CC1CCN(c2cc3c(N[C@H](C)c4cc(N)cc(C(F)(F)F)c4)nc(Cl)nc3cn2)CC1 [Example 27, (R)—N-(1-(3-amino-5-(trifluoromethyl)phenyl)ethyl)-2-chloro-6-(4-methylpiperidin-1-yl)pyrido[3,4-d]pyrimidin-4-amine]	≥ 50
C[C@@H](Nc1nc(Cl)nc2cnc(N3CCN(C4CCC4)CC3)cc12)c1cc(N)cc(C(F)(F)F)c1 [Example 28, (R)—N-(1-(3-amino-5-(trifluoromethyl)phenyl)ethyl)-2-chloro-6-(4-cyclobutylpiperazin-1-yl)pyrido[3,4-d]pyrimidin-4-amine]	≥ 50
C[C@@H](Nc1nc(Cl)nc2cnc(N3CCC(O)CC3)cc12)c1cc(N)cc(C(F)(F)F)c1 [Example 29, (R)-1-(4-((1-(3-amino-5-(trifluoromethyl)phenyl)ethyl)amino)-2-chloropyrido[3,4-d]pyrimidin-6-yl)piperidin-4-ol]	≥ 50
CNc1nc(N[C@H](C)c2cc(N)cc(C(F)(F)F)c2)c2cc(N3CCC(OC)CC3)ncc2n1 [Example 30, (R)—N4-(1-(3-amino-5-(trifluoromethyl)phenyl)ethyl)-6-(4-methoxypiperidin-1-yl)-N2-methylpyrido[3,4-d]pyrimidine-2,4-diamine]	≥ 50
CNc1nc(N[C@H](C)c2cc(N)cc(C(F)(F)F)c2)c2cc(N3CCN(C)CC3)ncc2n1 [Example 31, (R)—N4-(1-(3-amino-5-(trifluoromethyl)phenyl)ethyl)-N2-methyl-6-(4-methylpiperazin-1-yl)pyrido[3,4-d]pyrimidine-2,4-diamine]	≥ 50
CNc1nc(N[C@H](C)c2cc(N)cc(C(F)(F)F)c2)c2cc(N3CCC(F)(F)CC3)ncc2n1 [Example 32, (R)—N4-(1-(3-amino-5-(trifluoromethyl)phenyl)ethyl)-6-(4,4-difluoropiperidin-1-yl)-N2-methylpyrido[3,4-d]pyrimidine-2,4-diamine]	≥ 50
CNc1nc(N[C@H](C)c2cc(N)cc(C(F)(F)F)c2)c2cc(N3CCC(F)CC3)ncc2n1 [Example 33, (R)—N4-(1-(3-amino-5-(trifluoromethyl)phenyl)ethyl)-6-(4-fluoropiperidin-1-yl)-N2-methylpyrido[3,4-d]pyrimidine-2,4-diamine]	≥ 50
C[C@@H](Nc1nc(N2CCCC2=O)nc2cnc(N3CCCC3)cc12)c1cc(N)cc(C(F)(F)F)c1 [Example 34, (R)-1-(4-((1-(3-amino-5-(trifluoromethyl)phenyl)ethyl)amino)-6-(pyrrolidin-1-yl)pyrido[3,4-d]pyrimidin-2-yl)pyrrolidin-2-one]	≥ 50
CNCCNc1nc(N[C@H](C)c2cc(N)cc(C(F)(F)F)c2)c2cc(N3CCOCC3)ncc2n1 [Example 35, (R)—N4-(1-(3-amino-5-(trifluoromethyl)phenyl)ethyl)-N2-(2-(methylamino)ethyl)-6-morpholinopyrido[3,4-d]pyrimidine-2,4-diamine]	≥ 50
COCCNc1nc(N[C@H](C)c2cc(N)cc(C(F)(F)F)c2)c2cc(N3CCOCC3)ncc2n1 [Example 36, (R)—N4-(1-(3-amino-5-(trifluoromethyl)phenyl)ethyl)-N2-(2-methoxyethyl)-6-morpholinopyrido[3,4-d]pyrimidine-2,4-diamine]	≥ 50
C[C@@H](Nc1nc(N2CCC2)nc2cnc(N3CCOCC3)cc12)c1cc(N)cc(C(F)(F)F)c1 [Example 37, (R)—N-(1-(3-amino-5-(trifluoromethyl)phenyl)ethyl)-2-(azetidin-1-yl)-6-morpholinopyrido[3,4-d]pyrimidin-4-amine]	≥ 50
CC(C)Nc1nc(N[C@H](C)c2cc(N)cc(C(F)(F)F)c2)c2cc(N3CCOCC3)ncc2n1 [Example 38, (R)—N4-(1-(3-amino-5-(trifluoromethyl)phenyl)ethyl)-N2-isopropyl-6-morpholinopyrido[3,4-d]pyrimidine-2,4-diamine]	≥ 50
CNCCNc1nc(N[C@H](C)c2cc(N)cc(C(F)(F)F)c2)c2cc(N3CCCC3)ncc2n1 [Example 39, (R)—N4-(1-(3-amino-5-(trifluoromethyl)phenyl)ethyl)-N2-(2-(methylamino)ethyl)-6-(pyrrolidin-1-yl)pyrido[3,4-d]pyrimidine-2,4-diamine]	≥ 50
COC1CCN(c2cc3c(N[C@H](C)c4cc(N)cc(C(F)(F)F)c4)nc(N4CCC4)nc3cn2)CC1 [Example 40, (R)—N-(1-(3-amino-5-(trifluoromethyl)phenyl)ethyl)-2-(azetidin-1-yl)-6-(4-methoxypiperidin-1-yl)pyrido[3,4-d]pyrimidin-4-amine]	≥ 50
COC1CCN(c2cc3c(N[C@H](C)c4cc(N)cc(C(F)(F)F)c4)nc(N(C)C)nc3cn2)CC1 [Example 41, (R)—N4-(1-(3-amino-5-(trifluoromethyl)phenyl)ethyl)-6-(4-methoxypiperidin-1-yl)-N2,N2-dimethylpyrido[3,4-d]pyrimidine-2,4-diamine]	≥ 50
COC1CCN(c2cc3c(N[C@H](C)c4cc(N)cc(C(F)(F)F)c4)nc(NC(C)C)nc3cn2)CC1 [Example 42, (R)—N4-(1-(3-amino-5-(trifluoromethyl)phenyl)ethyl)-N2-isopropyl-6-(4-methoxypiperidin-1-yl)pyrido[3,4-d]pyrimidine-2,4-diamine]	≥ 50
C[C@@H](Nc1nc(N(C)C)nc2cnc(N3CCC(F)CC3)cc12)c1cc(N)cc(C(F)(F)F)c1 [Example 43, (R)—N4-(1-(3-amino-5-(trifluoromethyl)phenyl)ethyl)-6-(4-fluoropiperidin-1-yl)-N2,N2-dimethylpyrido[3,4-d]pyrimidine-2,4-diamine]	≥ 50
C[C@@H](Nc1nc(N2CCC2)nc2cnc(N3CCC(F)CC3)cc12)c1cc(N)cc(C(F)(F)F)c1 [Example 44, (R)—N-(1-(3-amino-5-(trifluoromethyl)phenyl)ethyl)-2-(azetidin-1-yl)-6-(4-fluoropiperidin-1-yl)pyrido[3,4-d]pyrimidin-4-amine]	≥ 50
C[C@@H](Nc1nc(N(C)C)nc2cnc(N3CCN(C)CC3)cc12)c1cc(N)cc(C(F)(F)F)c1 [Example 45, (R)—N4-(1-(3-amino-5-(trifluoromethyl)phenyl)ethyl)-N2,N2-dimethyl-6-(4-methylpiperazin-1-yl)pyrido[3,4-d]pyrimidine-2,4-diamine]	≥ 50
C[C@@H](Nc1nc(N2CCC2)nc2cnc(N3CCN(C)CC3)cc12)c1cc(N)cc(C(F)(F)F)c1 [Example 46, (R)—N-(1-(3-amino-5-(trifluoromethyl)phenyl)ethyl)-2-(azetidin-1-yl)-6-(4-methylpiperazin-1-yl)pyrido[3,4-d]pyrimidin-4-amine]	≥ 50
CC1CCN(c2cc3c(N[C@H](C)c4cc(N)cc(C(F)(F)F)c4)nc(N4CCC4)nc3cn2)CC1 [Example 47, (R)—N-(1-(3-amino-5-(trifluoromethyl)phenyl)ethyl)-2-(azetidin-1-yl)-6-(4-methylpiperidin-1-yl)pyrido[3,4-d]pyrimidin-4-amine]	< 50
CCN1CCN(c2cc3c(N[C@H](C)c4cc(N)cc(C(F)(F)F)c4)nc(N4CCC4)nc3cn2)CC1 [Example 48, (R)—N-(1-(3-amino-5-(trifluoromethyl)phenyl)ethyl)-2-(azetidin-1-yl)-6-(4-ethylpiperazin-1-yl)pyrido[3,4-d]pyrimidin-4-amine]	≥ 50
CCN1CCN(c2cc3c(N[C@H](C)c4cc(N)cc(C(F)(F)F)c4)nc(N(C)C)nc3cn2)CC1 [Example 49, (R)—N4-(1-(3-amino-5-(trifluoromethyl)phenyl)ethyl)-6-(4-ethylpiperazin-1-yl)-N2,N2-dimethylpyrido[3,4-d]pyrimidine-2,4-diamine]	≥ 50
CC(C)N1CCN(c2cc3c(N[C@H](C)c4cc(N)cc(C(F)(F)F)c4)nc(N(C)C)nc3cn2)CC1 [Example 50, (R)—N4-(1-(3-amino-5-(trifluoromethyl)phenyl)ethyl)-6-(4-isopropylpiperazin-1-yl)-N2,N2-dimethylpyrido[3,4-d]pyrimidine-2,4-diamine]	≥ 50
